The results in this text go back to ChEMBL document CHEMBL1146740, “New analogue of arenastatin A, a potent cytotoxic spongean depsipeptide, with anti-tumor activity” (Bioorg Med Chem Lett, 2004).

Assay [1] can be described thus: In vivo antitumor activity (reduction of tumor volume) was determined over treated/control mice at a dose of 2.5 mg/kg. The format is functional.
Assay [2] is described as follows: In vivo antitumor activity (reduction of tumor volume) was determined over treated/control mice at a dose of 5 mg/kg. In kind it is functional.
Assay [3] concerns Mus musculus. In words: In vivo antitumor activity (reduction of tumor volume) was determined against lewis lung carcinoma, subcutaneously in mice at a dose of 2.5 mg/kg. The settings on record: route intravenous. The format is functional.
Assay [4] relates to Mus musculus. Nature of the assay: In vivo antitumor activity (reduction of tumor volume) was determined against lewis lung carcinoma, subcutaneously in mice at a dose of 5 mg/kg. The format is functional. The settings on record: route intravenous.
For assay [5], the system named is KB 3-1. In words: Inhibitory activity was evaluated for potent cytotoxic effect on KB-3-1 cells. In kind it is functional, cell-based. The conditions noted are these: Homo sapiens.
Assay [6] concerns Mus musculus. In words: In vivo antitumor activity (reduction of tumor volume) was determined against lewis lung carcinoma, subcutaneously in mice at a dose of 10 mg/kg. The format is functional. The settings on record: route intravenous.
The nature of assay [7]: In vivo antitumor activity (reduction of tumor volume) was determined over treated/control mice at a dose of 10 mg/kg. In kind it is functional.
Assay [8] has as its system Mus musculus. Nature of the assay: In vivo antitumor activity (reduction of tumor volume) was determined against lewis lung carcinoma, subcutaneously in mice at a dose of 1.65 mg/kg. The format is functional. The settings on record: route intravenous.
A short description of assay [9]: In vivo antitumor activity (reduction of tumor volume) was determined over treated/control mice at a dose of 1.65 mg/kg. In kind it is functional.
The test system of assay [10] is Mus musculus. In words: In vivo antitumor activity (reduction of tumor volume) was determined against lewis lung carcinoma, subcutaneously in mice at a dose of 3.3 mg/kg. The conditions noted are these: route intravenous. The format is functional.
Assay [11] can be described thus: In vivo antitumor activity (reduction of tumor volume) was determined over treated/control mice at a dose of 3.3 mg/kg. The format is functional.

Values after ≈ are worked out from the molar mass of the structure shown.

Turning to `COc1ccc(C[C@H]2NC(=O)/C=C/C[C@@H]([C@H](C)[C@H]3O[C@@H]3c3ccccc3)OC(=O)[C@H](C(C)(C)C)OC(=O)CCNC2=O)cc1`, the T/C in assay [1] was 0.96; in assay [2] it was 1.03; in assay [7], 0.71. Also, the values for the Tumor volume in assay [3], in [4] and in assay [6] were 6.6 cm*3, 7.1 cm*3 and 4.9 cm*3, respectively. The compound further yielded an IC50 in [5] of 0.01 µg/mL (≈ 0.0165 µM).

Turning to `COc1ccc(C[C@H]2NC(=O)/C=C/C[C@@H]([C@H](C)[C@H]3O[C@@H]3c3ccccc3)OC(=O)[C@H](C(C)C)OC(=O)CCNC2=O)cc1`, the IC50 in assay [5] turned out to be 0.03 µg/mL (≈ 0.0506 µM).

Turning to `CO[C@@]12[C@H](COC(N)=O)C3=C(C(=O)C(C)=C(N)C3=O)N1C[C@@H]1N[C@@H]12` [MITOMYCIN], the Tumor volume in assay [8] is given as 4.2 cm*3; in [10] it was 3.3 cm*3. Moreover, the T/C stood at 0.62 in assay [9] and 0.48 in assay [11].

As a reminder, the IC50 is the concentration that gives 50% inhibition. The low end stands for inhibition by little substance, the high end for a need for much substance.
